Values joined by “and” are separate entries in the source; they are usually repeats but may differ in a detail not shown here. Equal values may be shown once.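 Test compounds were applied to cells in 96-well plates for 48 hours at 5 doses. GI50 = concentration required for 50% inhibition of growth. TGI: concentration producing complete growth inhibition.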
Tests used:
Assay in all cases: inhibition of tumour cell growth, NCI panel, 48 h
[1] = tested on: HCT-116 colon
[2] = tested on: LOX IMVI melanoma
[3] = tested on: NCI/ADR-RES ovarian
[4] = tested on: 786-0 renal
[5] = tested on: MDA-MB-435
[6] = tested on: K-562 leukemia
[7] = tested on: OVCAR-5 ovarian
[8] = tested on: SF-295 CNS
[9] = tested on: SR leukemia
[10] = tested on: BT-549 breast

## Cc1ccc2c(c1)C(O)(c1ccccc1)CCS2 (stereo not drawn)
[1]
  TGI: 42.5 µM
[2]
  TGI: 36 µM
[3]
  TGI: > 100 µM
[4]
  TGI: > 100 µM
[5]
  TGI: 73.2 µM
[6]
  TGI: > 100 µM
[7]
  TGI: 80.6 µM
[8]
  TGI: 80.3 µM
[9]
  TGI: 40.3 µM
[10]
  TGI: 93.6 µM

## Cc1cn(C2CC(O)C(COC(N)=O)O2)c(=O)[nH]c1=O (stereo not drawn)
[1]
  TGI: > 100 µM
[2]
  TGI: > 100 µM
[3]
  TGI: > 100 µM
[4]
  TGI: > 100 µM
[5]
  TGI: > 100 µM
[6]
  TGI: > 100 µM
[7]
  TGI: > 100 µM
[8]
  TGI: > 100 µM
[9]
  TGI: > 100 µM
[10]
  TGI: > 100 µM

## CCOC(=O)CCSC1=CC(=O)c2nc3ccccc3c3ccnc1c23
[1]
  GI50: 17.1 µM
  TGI: 76.6 µM
[2]
  GI50: 27 µM
  TGI: > 100 µM
[3]
  GI50: 32.8 µM
  TGI: > 100 µM
[4]
  GI50: 17.5 µM
  TGI: 39.3 µM
[5]
  GI50: 17.8 µM
  TGI: 37.7 µM
[6]
  GI50: 26.9 µM
  TGI: > 100 µM
[7]
  GI50: 27.5 µM
  TGI: 91 µM
[8]
  GI50: 17.1 µM
  TGI: 44.3 µM
[9]
  GI50: 7.59 µM
  TGI: > 100 µM
[10]
  GI50: 17.1 µM
  TGI: 34.3 µM

## CCS(=O)(=O)N1CCN(c2ccc(Nc3ncc(C(N)=O)c(NC4CC4)n3)cc2)CC1
[1]
  GI50: 5.84 µM
  TGI: > 100 µM
[2]
  GI50: 3.07 µM
  TGI: > 100 µM
[3]
  GI50: 9.59 µM
  TGI: > 100 µM
[4]
  GI50: 5.31 µM
  TGI: > 100 µM
[5]
  GI50: 5.6 µM
  TGI: > 100 µM
[6]
  GI50: 4.94 µM
  TGI: > 100 µM
[7]
  GI50: 36.8 µM
  TGI: > 100 µM
[8]
  GI50: 5.01 µM
  TGI: 94.3 µM
[9]
  GI50: 2.78 µM
  TGI: 23.4 µM
[10]
  GI50: 3.19 µM
  TGI: 11.3 µM

## CC(C)(C)OC(=O)N1Cc2cc3ccccc3nc2C1CO (stereo not drawn)
[1]
  GI50: > 100 µM
  TGI: > 100 µM
[2]
  GI50: > 100 µM
  TGI: > 100 µM
[3]
  GI50: > 100 µM
  TGI: > 100 µM
[4]
  GI50: > 100 µM
  TGI: > 100 µM
[5]
  GI50: > 100 µM
  TGI: > 100 µM
[6]
  GI50: > 100 µM
  TGI: > 100 µM
[7]
  GI50: > 100 µM
  TGI: > 100 µM
[8]
  GI50: > 100 µM
  TGI: > 100 µM
[9]
  GI50: > 100 µM
  TGI: > 100 µM
[10]
  GI50: > 100 µM
  TGI: > 100 µM

## NC(Cc1c[nH]c2cccc(F)c12)C(=O)O (stereo not drawn)
[1]
  GI50: 43.8 µM and 305 µM
  TGI: 1000 µM
[2]
  GI50: 51.6 µM and 211 µM
  TGI: 982 µM
[3]
  GI50: 63.9 µM and 418 µM
  TGI: 2360 µM
[4]
  GI50: 124 µM
  TGI: 894 µM
[5]
  GI50: 50.9 µM and 189 µM
  TGI: > 4500 µM
[6]
  GI50: 68.5 µM and 269 µM
  TGI: > 4500 µM
[7]
  GI50: 1280 µM
  TGI: > 4500 µM
[8]
  GI50: 39.5 µM and 176 µM
  TGI: 1190 µM
[9]
  TGI: > 4500 µM
[10]
  GI50: 151 µM
  TGI: 873 µM

## CCSCCCC(=O)O
[1]
  TGI: > 100 µM
[2]
  TGI: > 100 µM
[3]
  TGI: > 100 µM
[4]
  TGI: > 100 µM
[5]
  TGI: > 100 µM
[6]
  TGI: > 100 µM
[7]
  TGI: > 100 µM
[8]
  TGI: > 100 µM
[9]
  TGI: > 100 µM
[10]
  TGI: > 100 µM

## Nc1no[n+]([O-])c1-c1nnc2c(n1)-c1ccccc1C2=O
[1]
  GI50: 1.38 µM
  TGI: 3.62 µM
[2]
  GI50: 1.81 µM
  TGI: 4.16 µM
[3]
  GI50: 3.73 µM
  TGI: 32.3 µM
[4]
  GI50: 4.3 µM
  TGI: 16.8 µM
[5]
  GI50: 1.91 µM
  TGI: 3.82 µM
[6]
  GI50: 1.26 µM
  TGI: 4.54 µM
[7]
  GI50: 1.88 µM
  TGI: 3.77 µM
[8]
  GI50: 12.5 µM
  TGI: 34.3 µM
[9]
  GI50: 2.48 µM
[10]
  GI50: 2.99 µM
  TGI: 12.9 µM

## C=C1C(O)C2CC(C)(C)C(=O)C2=C(CC(C)C)C12CC2 (stereo not drawn)
[1]
  GI50: > 100 µM
  TGI: > 100 µM
[2]
  GI50: > 100 µM
  TGI: > 100 µM
[3]
  GI50: > 100 µM
  TGI: > 100 µM
[4]
  GI50: > 100 µM
  TGI: > 100 µM
[5]
  GI50: > 100 µM
  TGI: > 100 µM
[6]
  GI50: > 100 µM
  TGI: > 100 µM
[7]
  GI50: > 100 µM
  TGI: > 100 µM
[8]
  GI50: > 100 µM
  TGI: > 100 µM
[9]
  GI50: 62.4 µM
  TGI: > 100 µM
[10]
  GI50: > 100 µM
  TGI: > 100 µM

## NCCCNc1nc2ccccc2c2c(=O)c3cc(F)cc(Cl)c3sc12
[1]
  GI50: 1.72 µM
  TGI: 3.12 µM
[2]
  GI50: 1.68 µM
  TGI: 3.14 µM
[3]
  GI50: 1.73 µM
  TGI: 3.46 µM
[4]
  GI50: 1.45 µM
  TGI: 2.9 µM
[5]
  GI50: 1.66 µM
  TGI: 3.04 µM
[6]
  GI50: 1.78 µM
  TGI: 4.1 µM
[7]
  GI50: 1.65 µM
  TGI: 3.1 µM
[8]
  GI50: 1.75 µM
  TGI: 3.2 µM
[9]
  GI50: 1.19 µM
  TGI: 4.04 µM
[10]
  GI50: 12.9 µM
  TGI: 26.7 µM

## O=C(O)c1[nH]c2c([N+](=O)[O-])cc([N+](=O)[O-])cc2c1C(=O)O
[1]
  TGI: > 100 µM
[2]
  TGI: > 100 µM
[3]
  TGI: > 100 µM
[4]
  TGI: > 100 µM
[5]
  TGI: > 100 µM
[6]
  TGI: > 100 µM
[7]
  TGI: > 100 µM
[8]
  TGI: > 100 µM
[9]
  TGI: > 100 µM
[10]
  TGI: > 100 µM

## O=C(Nc1cc2cc([N+](=O)[O-])ccc2oc1=O)c1cccs1
[1]
  TGI: > 100 µM
[2]
  TGI: > 100 µM
[3]
  TGI: > 100 µM
[4]
  TGI: > 100 µM
[5]
  TGI: 70.8 µM
[6]
  TGI: > 100 µM
[7]
  TGI: > 100 µM
[8]
  TGI: > 100 µM
[9]
  TGI: > 100 µM
[10]
  TGI: > 100 µM

## C/C(=N\NC(=S)N1CCN(c2ccccn2)CC1)c1cccc2cccnc12
[1]
  TGI: 6.71 µM
[2]
  TGI: > 100 µM
[3]
  TGI: 15.4 µM
[4]
  TGI: > 100 µM
[5]
  TGI: > 100 µM
[6]
  TGI: > 100 µM
[7]
  TGI: > 60.1 µM
[8]
  TGI: 55.8 µM
[9]
  TGI: > 38.7 µM
[10]
  TGI: > 100 µM

## CC(=O)O[C@H]1CC[C@]2(C)C3C(=O)C[C@]4(C)[C@@H](C(C)CCC(=O)O)CC[C@@]4(C)[C@@H]3CC[C@H]2C1(C)C (stereo partly drawn)
[1]
  GI50: 9.37 µM
  TGI: 20.5 µM
[2]
  GI50: 7.64 µM
  TGI: 20.7 µM
[3]
  GI50: 16.5 µM
  TGI: > 50 µM
[4]
  GI50: 20.7 µM
  TGI: > 50 µM
[5]
  GI50: 13.5 µM
  TGI: 33.8 µM
[6]
  GI50: 14.9 µM
  TGI: > 50 µM
[7]
  GI50: > 50 µM
  TGI: > 50 µM
[8]
  GI50: 17.9 µM
  TGI: > 50 µM
[9]
  GI50: 16.6 µM
  TGI: > 50 µM
[10]
  GI50: 17 µM
  TGI: 39.4 µM

## CC(=O)c1ccc(Oc2c3ccccc3nc3occc23)cc1
[1]
  GI50: 7.35 µM
  TGI: > 100 µM
[2]
  GI50: 6.35 µM
  TGI: > 100 µM
[3]
  GI50: 2.52 µM
  TGI: 9.81 µM
[4]
  GI50: 33.3 µM
  TGI: > 100 µM
[5]
  GI50: 2.02 µM
  TGI: 5.41 µM
[6]
  GI50: 2.93 µM
  TGI: > 100 µM
[7]
  GI50: 27.3 µM
  TGI: > 100 µM
[8]
  GI50: 2.02 µM
  TGI: 12.5 µM
[9]
  GI50: 0.842 µM
  TGI: > 100 µM
[10]
  GI50: 47.3 µM
  TGI: > 100 µM
